Measured values: US6825230B2, “Spiro and dispiro 1,2,4-trixolane antimalarials” (Medicines for Malaria Venture MMV, priority 2002, dated 2004)
≈ marks a conversion by molar mass, not a printed value. Read-outs that look alike come from different tables or passages of the source.

Legend:
[1] = tested on: Schistosoma mansoni adult worms (49-day-old); assay: Effect on adult schistosomes (49-day-old) in infected mice; format: in vivo; details: single 400 mg/kg per os; for % reduction of adult worms growth at day 49 after per os application of 400 mg/kg, TWR (%): 49-day-old adults, total worm reduction rate; for Adult worms day 49, per os 400 mg/kg, DEAD WORM (%): percentage of dead worm in the liver
Description: Mice were infected with 100 Schistosoma mansoni cercariae on day 49 post-treatment. Each group was treated per os with OZ compounds at single doses of 200, 400, and 600 mg/kg. Untreated mice served as the control. All groups were killed 4 weeks after treatment and the liver and intestine were removed and separated. The liver and intestine were compressed and alive male and female worms could be seen and counted.

[2] = tested on: chloroquine-sensitive NF54 strain of P. falciparum; assay: In vitro antimalarial semiautomated microdilution assay ([3H]-hypoxanthine incorporation), NF54 strain; format: cell-based, Plasmodium falciparum; details: Plasmodium falciparum
Summary of the method: (§1)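 IC50 values come from Logit regression of [3H]-hypoxanthine uptake data. Parasites were intraerythrocytic P. falciparum forms taken from asynchronous stock cultures and tested by semiautomated microdilution.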

[3] = tested on: chloroquine-resistant K1 strain of P. falciparum; assay: In vitro antimalarial semiautomated microdilution assay ([3H]-hypoxanthine incorporation), K1 strain; format: cell-based, Plasmodium falciparum; details: Plasmodium falciparum
Summary of the method: as §1

[4] = tested on: ANKA strain of P. berghei; assay: Single dose STI in vivo screen in infected mice; set-up: species or system Plasmodium berghei; details: for Survival (days) 10 mg/kg SSV po: single 10 mg/kg po in SSV, untreated 6-7 days; for Activity (%) 10 mg/kg SSV po: single 10 mg/kg po in standard suspending vehicle (SSV) on day 1 post-infection; for Activity (%) 10 mg/kg SSV po / Activity (%) 3 mg/kg SSV po: percent reduction in parasitemia on day 3; for Survival (days) 3 mg/kg SSV po / Activity (%) 3 mg/kg SSV po: single 3 mg/kg po in SSV
[5] = NF54, 72 h, read-out: IC50 (ng/ml) NF54, chloroquine-sensitive NF54 strain, 72 h incubation
[6] = K1, 72 h, read-out: IC50 (ng/ml) K1, chloroquine-resistant K1 strain, 72 h incubation
[7] = chloroquine-sensitive NF54 strain, 72 h incubation, read-out: IC50 (ng/ml) NF54
[8] = chloroquine-resistant K1 strain, 72 h incubation, read-out: IC50 (ng/ml) K1

| SMILES | % reduction of adult worms growth at day 49 after per os application of 400 mg/kg, TWR (%) [1] [%] | Adult worms day 49, per os 400 mg/kg, DEAD WORM (%) [1] [%] | IC50 [2, 5] [ng/mL] | IC50 [3, 6] [ng/mL] | Survival (days) 10 mg/kg SSV po [4] | Activity (%) 10 mg/kg SSV po [4] | IC50 [2, 7] [ng/mL] | IC50 [3, 8] [ng/mL] | Survival (days) 3 mg/kg SSV po [4] [days] | Activity (%) 3 mg/kg SSV po [4] [%] |
| --- | --- | --- | --- | --- | --- | --- | --- | --- | --- | --- |
| Clc1ccc(C2(c3ccc(Cl)cc3)OOC3(O2)C2CC4CC(C2)CC3C4)cc1 (stereo not drawn) [OZ43] | 1 | 0 |  |  |  |  |  |  |  |  |
| CC(=O)N1CCC2(CC1)OOC1(O2)C2CC3CC(C2)CC1C3 (stereo not drawn) [OZ49] | 17 | 10 |  |  |  |  |  |  |  |  |
| O=S1(=O)CCC2(CC1)OOC1(O2)C2CC3CC(C2)CC1C3 (stereo not drawn) [OZ50] | 12 | 4 |  |  |  |  |  |  |  |  |
| CCOC(=O)CC1CCC2(CC1)OOC1(O2)C2CC3CC(C2)CC1C3 (stereo not drawn) [OZ61] | 8 | 21 |  |  |  |  |  |  |  |  |
| FC1(c2ccccc2)CCC2(CC1)OOC1(O2)C2CC3CC(C2)CC1C3 (stereo not drawn) [OZ274] |  |  | 5.7 (≈ 15.9 nM) | 5.1 (≈ 14.2 nM) | 7.0/ND days | 11/ND % |  |  |  |  |
| OC1(Cc2ccccn2)CCC2(CC1)OOC1(O2)C2CC3CC(C2)CC1C3 (stereo not drawn) [OZ275] |  |  | 0.74 (≈ 1.99 nM) | 0.66 (≈ 1.78 nM) | 7.3/ND days | 68/ND % |  |  |  |  |
| O=C(C[C@H]1CC[C@]2(CC1)OO[C@]1(O2)C2CC3CC(C2)CC1C3)Nc1nnn[nH]1 [OZ278] |  |  | 39 (≈ 100 nM) | 23 (≈ 59.1 nM) | 7.3/ND days | 56/ND % |  |  |  |  |
| O=C1CN(C[C@H]2CC[C@]3(CC2)OOC2(O3)C3CC4CC(C3)CC2C4)CCN1 (stereo partly drawn) [OZ285] |  |  |  |  | 8.7 days | 99.81% | 1.8 (≈ 4.78 nM) | 1.3 (≈ 3.45 nM) | 7.6 | 72 |
| CC(C)(N)CNC[C@H]1CC[C@]2(CC1)OOC1(O2)C2CC3CC(C2)CC1C3 (stereo partly drawn) [OZ287] |  |  |  |  | 8.3 days | 95% | 0.83 (≈ 2.28 nM) | 0.49 (≈ 1.34 nM) | 7.2 | 68 |
| Oc1ccc([C@H]2CC[C@]3(CC2)OOC2(O3)C3CC4CC(C3)CC2C4)cc1 (stereo partly drawn) [OZ288] |  |  |  |  | 11.0 days | 99.96% | 2.7 (≈ 7.57 nM) | 1.7 (≈ 4.77 nM) | 8.0 | 82 |
| c1ccc(CNC[C@H]2CC[C@]3(CC2)OO[C@]2(O3)C3CC4CC(C3)CC2C4)nc1 [OZ292] |  |  |  |  | 7.0 days | 74% | 0.26 (≈ 0.676 nM) | 0.19 (≈ 0.494 nM) | 6.6 | 46 |
| O=CN1CCN(C(=O)C[C@H]2CC[C@]3(CC2)OO[C@]2(O3)C3CC4CC(C3)CC2C4)CC1 [OZ294] |  |  |  |  | 8.6 days | 99.79% | 0.63 (≈ 1.51 nM) | 0.39 (≈ 0.932 nM) | 7.4 | 70 |
| O=C(C[C@H]1CC[C@]2(CC1)OO[C@]1(O2)C2CC3CC(C2)CC1C3)NCc1ccccn1 [OZ295] |  |  |  |  | 7.0 days | 47% | 0.75 (≈ 1.82 nM) | 0.44 (≈ 1.07 nM) | 6.4 | 35 |
| O=C1CN(C(=O)C[C@H]2CC[C@]3(CC2)OO[C@]2(O3)C3CC4CC(C3)CC2C4)CCN1 [OZ296] |  |  |  |  | 10.0 days | 99.22% | 0.89 (≈ 2.2 nM) | 0.6 (≈ 1.48 nM) | 9.2 | 90 |
| O=C(C[C@H]1CC[C@]2(CC1)OO[C@]1(O2)C2CC3CC(C2)CC1C3)N1CCC(O)CC1 [OZ297] |  |  |  |  | 9.8 days | 99.69% | 0.76 (≈ 1.87 nM) | 0.49 (≈ 1.21 nM) | 7.6 | 83 |
| O=S(=O)(C[C@H]1CC[C@]2(CC1)OO[C@]1(O2)C2CC3CC(C2)CC1C3)c1ncccn1 [OZ299] |  |  | 6.3 (≈ 15 nM) | 6.8 (≈ 16.2 nM) | 6.6 days | 36% |  |  | 6.4 | 0 |
| O=C(O)CCC(=O)NC[C@H]1CC[C@]2(CC1)OO[C@]1(O2)C2CC3CC(C2)CC1C3 [OZ300] |  |  |  |  | 6.8 days | 6% | 97 (≈ 247 nM) | 71 (≈ 180 nM) | 7.0 | 0 |
| NC(=O)CNC(=O)C[C@H]1CC[C@]2(CC1)OO[C@]1(O2)C2CC3CC(C2)CC1C3 [OZ306] |  |  | 3.6 (≈ 9.51 nM) | 3.9 (≈ 10.3 nM) | 9.2 days |  |  |  | 8.2 | 87 |
| CS(=O)(=O)C[C@H]1CC[C@]2(CC1)OO[C@]1(O2)C2CC3CC(C2)CC1C3 [OZ307] |  |  | 0.88 (≈ 2.47 nM) | 0.62 (≈ 1.74 nM) | 9.4 days | 98% |  |  | 7.8 | 74 |
| O=C(O)CNC[C@H]1CC[C@]2(CC1)OO[C@]1(O2)C2CC3CC(C2)CC1C3 [OZ309] |  |  | 17 (≈ 48.4 nM) | 11 (≈ 31.3 nM) | 8.8 days | 99.80% |  |  | 7.8 | 86 |
| O=C(O)C1CCN(C(=O)C[C@H]2CC[C@]3(CC2)OO[C@]2(O3)C3CC4CC(C3)CC2C4)CC1 [OZ312] |  |  | 27 (≈ 62.3 nM) | 19 (≈ 43.8 nM) | 7.2 days | 43% |  |  | 6.2 | 13 |
| O=C(C[C@H]1CC[C@]2(CC1)OO[C@]1(O2)C2CC3CC(C2)CC1C3)NCCN1CCOCC1 [OZ313] |  |  | 0.76 (≈ 1.75 nM) | 0.55 (≈ 1.27 nM) | 10.4 days |  |  |  | 7.4 | 58 |
| NC1(C(=O)NC[C@H]2CC[C@]3(CC2)OO[C@]2(O3)C3CC4CC(C3)CC2C4)CCCC1 [OZ317] |  |  |  |  | 9.8 days |  | 0.36 (≈ 0.89 nM) | 0.33 (≈ 0.816 nM) | 10.0 |  |
| NCCOc1ccc([C@H]2CC[C@]3(CC2)OO[C@]2(O3)C3CC4CC(C3)CC2C4)cc1 [OZ323] |  |  | 1.1 (≈ 2.75 nM) | 0.85 (≈ 2.13 nM) | 15.6 days | 99.98% |  |  | 9.2 | 99.92 |
| NC1(C(=O)NC[C@H]2CC[C@]3(CC2)OO[C@]2(O3)C3CC4CC(C3)CC2C4)CCCCC1 [OZ333] |  |  |  |  | 9.2 days |  | 0.44 (≈ 1.05 nM) | 0.24 (≈ 0.573 nM) | 8.0 | 96 |
| NOC[C@H]1CC[C@]2(CC1)OO[C@]1(O2)C2CC3CC(C2)CC1C3 [OZ334] |  |  | 20 (≈ 64.6 nM) | 28 (≈ 90.5 nM) | 6.8 days | 47% |  |  | 6.6 | 13 |
| NNC(=O)C[C@H]1CC[C@]2(CC1)OO[C@]1(O2)C2CC3CC(C2)CC1C3 [OZ340] |  |  | 2.9 (≈ 8.62 nM) | 4.9 (≈ 14.6 nM) | 9.2 days | 93% |  |  | 6.4 | 36 |
